In ChEMBL document CHEMBL3826915, “Design and comparative anticonvulsant activity assessment of CNS-active alkyl-carbamoyl imidazole derivatives” (Bioorg Med Chem, 2016):
The source made the active and inactive calls. The rule behind the calls is not given here.

How the values were obtained:
Mus musculus [1] = assay: Anticonvulsant activity in albino CF1 mouse assessed as protection against maximal electroshock-induced seizures at 30 mg/kg, ip after 2 hrs; assay type: functional, organism-based
Mus musculus [2] = assay: Anticonvulsant activity in albino CF1 mouse assessed as protection against maximal electroshock-induced seizures at 100 mg/kg, ip after 0.5 hrs; assay type: functional, organism-based
Mus musculus [3] = assay: Anticonvulsant activity in albino CF1 mouse assessed as protection against 32 mA current-induced seizure at 30 mg/kg, ip after 2 hrs by 6 Hz psychomotor test; assay type: functional, organism-based
Mus musculus [4] = assay: Neurotoxicity in albino CF1 mouse assessed as behavioral impairment at 30 mg/kg, ip after 2 hrs by rotorod test; assay type: toxicity, organism-based; details: in vivo
Mus musculus [5] = assay: Anticonvulsant activity in albino CF1 mouse assessed as protection against maximal electroshock-induced seizures at 30 mg/kg, ip after 0.5 hrs; assay type: functional, organism-based
Mus musculus [6] = assay: Neurotoxicity in albino CF1 mouse assessed as behavioral impairment at 300 mg/kg, ip after 0.5 hrs by rotorod test; assay type: toxicity, organism-based; details: in vivo
Mus musculus [7] = assay: Neurotoxicity in albino CF1 mouse assessed as behavioral impairment at 100 mg/kg, ip after 2 hrs by rotorod test; assay type: toxicity, organism-based; details: in vivo
Mus musculus [8] = assay: Anticonvulsant activity in albino CF1 mouse assessed as protection against 32 mA current-induced seizure at 30 mg/kg, ip after 0.5 hrs by 6 Hz psychomotor test; assay type: functional, organism-based
Mus musculus [9] = assay: Neurotoxicity in albino CF1 mouse assessed as behavioral impairment at 300 mg/kg, ip after 2 hrs by rotorod test; assay type: toxicity, organism-based; details: in vivo
Mus musculus [10] = assay: Anticonvulsant activity in albino CF1 mouse assessed as protection against 32 mA current-induced seizure at 100 mg/kg, ip after 2 hrs by 6 Hz psychomotor test; assay type: functional, organism-based
Mus musculus [11] = assay: Neurotoxicity in albino CF1 mouse assessed as behavioral impairment at 30 mg/kg, ip after 0.5 hrs by rotorod test; assay type: toxicity, organism-based; details: in vivo
Mus musculus [12] = assay: Anticonvulsant activity in ip dosed albino CF1 mouse assessed as protection against subcutaneous metrazol-induced seizures; assay type: functional
[13] = Neurotoxicity in ip dosed albino CF1 mouse assessed as motor impairment by rotorod test; assay type: toxicity, organism-based; details: in vivo
Mus musculus [14] = assay: Anticonvulsant activity in ip dosed albino CF1 mouse assessed as protection against subcutaneous metrazol-induced seizures by measuring time to peak effect; assay type: functional
Mus musculus [15] = assay: Anticonvulsant activity in ip dosed albino CF1 mouse assessed as protection against maximal electroshock-induced seizures by measuring time to peak effect; assay type: functional
Mus musculus [16] = assay: Anticonvulsant activity in ip dosed albino CF1 mouse assessed as protection against 6 Hz current-induced seizure by measuring time to peak effect; assay type: functional
[17] = Protective index, ratio of TD50 for neurotoxicity in ip dosed albino CF1 mouse to ED50 for anticonvulsant activity in ip dosed maximal electroshock-induced seizure albino CF1 mouse model; assay type: toxicity, organism-based; details: in vivo, read-out: Ratio TD50/ED50
Mus musculus [18] = assay: Anticonvulsant activity in ip dosed albino CF1 mouse assessed as protection against maximal electroshock-induced seizures; assay type: functional
Rattus norvegicus [19] = assay: Neurotoxicity in albino Sprague-Dawley rat assessed as behavioral impairment at 30 mg/kg, po after 1 hr by rotorod test; assay type: toxicity, organism-based; details: in vivo
Mus musculus [20] = assay: Anticonvulsant activity in albino CF1 mouse assessed as protection against maximal electroshock-induced seizures at 100 mg/kg, ip after 2 hrs; assay type: functional, organism-based
Rattus norvegicus [21] = assay: Neurotoxicity in albino Sprague-Dawley rat assessed as behavioral impairment at 30 mg/kg, ip after 2 hrs by rotorod test; assay type: toxicity, organism-based; details: in vivo
Rattus norvegicus [22] = assay: Neurotoxicity in albino Sprague-Dawley rat assessed as behavioral impairment at 30 mg/kg, ip after 0.5 hrs by rotorod test; assay type: toxicity, organism-based; details: in vivo
Rattus norvegicus [23] = assay: Neurotoxicity in albino Sprague-Dawley rat assessed as behavioral impairment at 30 mg/kg, po after 2 hrs by rotorod test; assay type: toxicity, organism-based; details: in vivo
Rattus norvegicus [24] = assay: Neurotoxicity in albino Sprague-Dawley rat assessed as behavioral impairment at 30 mg/kg, ip after 0.25 hrs by rotorod test; assay type: toxicity, organism-based; details: in vivo
Rattus norvegicus [25] = assay: Anticonvulsant activity in albino Sprague-Dawley rat assessed as protection against maximal electroshock-induced seizures at 30 mg/kg, po after 1 hr; assay type: functional, organism-based
Rattus norvegicus [26] = assay: Anticonvulsant activity in albino Sprague-Dawley rat assessed as protection against maximal electroshock-induced seizures at 30 mg/kg, po after 2 hrs; assay type: functional, organism-based
Rattus norvegicus [27] = assay: Neurotoxicity in albino Sprague-Dawley rat assessed as behavioral impairment at 30 mg/kg, po after 0.5 hrs by rotorod test; assay type: toxicity, organism-based; details: in vivo
Rattus norvegicus [28] = assay: Anticonvulsant activity in albino Sprague-Dawley rat assessed as protection against maximal electroshock-induced seizures at 30 mg/kg, po after 0.5 hrs; assay type: functional, organism-based
Rattus norvegicus [29] = assay: Anticonvulsant activity in albino Sprague-Dawley rat assessed as protection against maximal electroshock-induced seizures at 30 mg/kg, ip after 2 hrs; assay type: functional, organism-based
Rattus norvegicus [30] = assay: Neurotoxicity in albino Sprague-Dawley rat assessed as behavioral impairment at 30 mg/kg, po after 0.25 hrs by rotorod test; assay type: toxicity, organism-based; details: in vivo
Rattus norvegicus [31] = assay: Neurotoxicity in albino Sprague-Dawley rat assessed as behavioral impairment at 30 mg/kg, ip after 1 hr by rotorod test; assay type: toxicity, organism-based; details: in vivo
Rattus norvegicus [32] = assay: Anticonvulsant activity in albino Sprague-Dawley rat assessed as protection against maximal electroshock-induced seizures at 30 mg/kg, po after 0.25 hrs; assay type: functional, organism-based
Rattus norvegicus [33] = assay: Anticonvulsant activity in albino Sprague-Dawley rat assessed as protection against maximal electroshock-induced seizures at 30 mg/kg, ip after 0.25 hrs; assay type: functional, organism-based
Mus musculus [34] = assay: Anticonvulsant activity in albino CF1 mouse assessed as protection against maximal electroshock-induced seizures at 300 mg/kg, ip after 2 hrs; assay type: functional, organism-based
[35] = Protective index, ratio of TD50 for neurotoxicity in ip dosed albino CF1 mouse to ED50 for anticonvulsant activity in ip dosed […] metrazol-induced seizure albino CF1 mouse model; assay type: toxicity, organism-based; details: in vivo, read-out: Ratio TD50/ED50
Mus musculus [36] = assay: Anticonvulsant activity in ip dosed albino CF1 mouse assessed as protection against 6 Hz current-induced seizures by psychomotor test; assay type: functional
Mus musculus [37] = assay: Anticonvulsant activity in albino CF1 mouse assessed as protection against 32 mA current-induced seizure at 100 mg/kg, ip after 0.5 hrs by 6 Hz psychomotor test; assay type: functional, organism-based
Mus musculus [38] = assay: Anticonvulsant activity in albino CF1 mouse assessed as protection against maximal electroshock-induced seizures at 300 mg/kg, ip after 0.5 hrs; assay type: functional, organism-based
Rattus norvegicus [39] = assay: Anticonvulsant activity in albino Sprague-Dawley rat assessed as protection against maximal electroshock-induced seizures at 30 mg/kg, ip after 0.5 hrs; assay type: functional, organism-based
Rattus norvegicus [40] = assay: Anticonvulsant activity in albino Sprague-Dawley rat assessed as protection against maximal electroshock-induced seizures at 30 mg/kg, ip after 1 hr; assay type: functional, organism-based
Mus musculus [41] = assay: Anticonvulsant activity in albino CF1 mouse assessed as protection against 32 mA current-induced seizure at 300 mg/kg, ip after 0.5 hrs by 6 Hz psychomotor test; assay type: functional, organism-based
Mus musculus [42] = assay: Anticonvulsant activity in albino CF1 mouse assessed as protection against 32 mA current-induced seizure at 300 mg/kg, ip after 2 hrs by 6 Hz psychomotor test; assay type: functional, organism-based

SMILES	Activity (Mus musculus [1])	Activity (Mus musculus [2])	Activity (Mus musculus [3])	Activity (Mus musculus [4])	Activity (Mus musculus [5])	Activity (Mus musculus [6])	Activity (Mus musculus [7])	Activity (Mus musculus [8])	Activity (Mus musculus [9])	Activity (Mus musculus [11])	Activity (Rattus norvegicus [19])	Activity (Mus musculus [20])	Activity (Rattus norvegicus [21])	Activity (Rattus norvegicus [22])	Activity (Rattus norvegicus [23])	Activity (Rattus norvegicus [24])	Activity (Rattus norvegicus [26])	Activity (Rattus norvegicus [27])	Activity (Rattus norvegicus [30])	Activity (Rattus norvegicus [31])	further results
CCCCC(CC)COC(=O)NCCCn1ccnc1 (stereo not given)	inactive	Active	inactive	Non-toxic	inactive	Toxic	Non-toxic	inactive	Toxic	Non-toxic	–	–	–	–	–	–	–	–	–	–	Activity (Mus musculus [10]): inactive
NC(=O)OCC(COC(N)=O)c1ccccc1 [FELBAMATE]	–	–	–	–	–	–	–	–	–	–	–	–	–	–	–	–	–	–	–	–	ED50 (Mus musculus [12]): > 250 mg/kg; TD50 [13]: > 500 mg/kg; Time (Mus musculus [14]): 0.5 h; Time (Mus musculus [15]): 0.5 h; Time (Mus musculus [16]): 0.5 h; selectivity ratio [17]: > 20; ED50 (Mus musculus [18]): 25 mg/kg
CC(C)(C)CCOC(=O)NCCCn1ccnc1	inactive	Active	inactive	Non-toxic	–	Toxic	Non-toxic	inactive	Toxic	Non-toxic	Non-toxic	Active	Non-toxic	Non-toxic	Non-toxic	Non-toxic	inactive	Non-toxic	Non-toxic	Non-toxic	Activity (Rattus norvegicus [25]): inactive; Activity (Rattus norvegicus [28]): inactive; Activity (Rattus norvegicus [29]): inactive; Activity (Rattus norvegicus [32]): inactive
CCCC(CCC)C(=O)O [VALPROIC ACID]	–	–	–	–	–	–	–	–	–	–	–	–	–	–	–	–	–	–	–	–	ED50 (Mus musculus [12]): 646 mg/kg; TD50 [13]: 784 mg/kg; Time (Mus musculus [14]): 0.5 h; Time (Mus musculus [15]): 0.5 h; Time (Mus musculus [16]): 0.5 h
O=C(NCCCn1ccnc1)OCCc1ccccc1	inactive	Active	inactive	Non-toxic	Active	Toxic	Non-toxic	inactive	Toxic	Non-toxic	Non-toxic	Active	Non-toxic	Non-toxic	Non-toxic	Non-toxic	inactive	Non-toxic	Non-toxic	Non-toxic	ED50 (Mus musculus [12]): > 80 mg/kg; Activity (Rattus norvegicus [33]): Active; TD50 [13]: 77 mg/kg; Activity (Mus musculus [34]): Active; selectivity ratio [35]: 0.96; Time (Mus musculus [14]): 0.5 h; ED50 (Mus musculus [36]): inactive; Time (Mus musculus [15]): 0.5 h; Time (Mus musculus [16]): 0.5 h; Activity (Mus musculus [37]): Active; Activity (Mus musculus [38]): Active; selectivity ratio [17]: 5.5; ED50 (Mus musculus [18]): 14 mg/kg; Activity (Rattus norvegicus [39]): Active
CCC(C)C(C)OC(=O)NCCCn1ccnc1 (stereo not given)	inactive	Active	inactive	Non-toxic	inactive	Toxic	Non-toxic	inactive	–	Non-toxic	Non-toxic	Active	Non-toxic	Non-toxic	Non-toxic	Non-toxic	inactive	Non-toxic	Non-toxic	Non-toxic	Activity (Rattus norvegicus [28]): inactive; Activity (Rattus norvegicus [29]): inactive; Activity (Mus musculus [10]): inactive; Activity (Mus musculus [38]): Active; Activity (Rattus norvegicus [40]): inactive; Activity (Rattus norvegicus [32]): inactive
CC(C)(C)COC(=O)NCCCn1ccnc1	inactive	–	inactive	Non-toxic	inactive	–	Non-toxic	inactive	–	Non-toxic	Non-toxic	Active	Non-toxic	Non-toxic	Non-toxic	Non-toxic	inactive	Non-toxic	Non-toxic	Non-toxic	Activity (Mus musculus [34]): Active; Activity (Mus musculus [41]): inactive; Activity (Rattus norvegicus [25]): inactive; Activity (Rattus norvegicus [28]): inactive; Activity (Mus musculus [42]): inactive; Activity (Mus musculus [10]): inactive; Activity (Mus musculus [37]): inactive; Activity (Mus musculus [38]): inactive
